# Results as given in patent US20050222269A1, “Use of deprenyl compounds to treat viral infections and reduce tissue damage associated therewith” (priority 1998, published 2005).
# What was measured:
# [1] = Stability of deprenyl as a function of pH of the medium; assay type: physicochemical; settings: pH about 3-5 versus pH about 7
# Excerpt: The stability of deprenyl can be affected by the pH of the medium in which the deprenyl is formulated. […] Therefore, when formulating a deprenyl compound in a pharmaceutical composition, it is preferred that the deprenyl compound be maintained at a suitable pH. In preferred embodiments, a pharmaceutical composition of the invention has a pH in the range of about 3 to about 5, more preferably about 3 to about 4. Furthermore, ethyl alcohol is a preferred solvent for improving stability of deprenyl. Thus, in certain embodiments, alcoholic or aqueous alcoholic media are preferred for the pharmaceutical compositions of the invention.
# huBLCL/env cells = assay: CTL-mediated killing (51Cr release) of huBLCL/env cells expressing SIV env; assay type: cell-based, human; settings: for Percent Specific Lysis: hu BLCL/env target cells, compound 1.0 nM added at beginning of 5 hour assay, 51Cr release
# rh BLCL/env cells = assay: CTL-mediated killing (51Cr release) of rh BLCL/env cells expressing SIV env; assay type: cell-based, rhesus monkey; settings: for Effect on CTL-mediated cell killing / lysis (in words): rh BLCL/env cells; for Percent Specific Lysis: rh BLCL/env target cells, compound 1.0 nM added at beginning of 5 hour assay, 51Cr release
# ClR/env cells = assay: CTL-mediated killing (51Cr release) of C1R/env cells expressing SIV env; assay type: cell-based, human; settings: for Effect on CTL-mediated cell killing / lysis (in words): C1R/env cells; for Percent Specific Lysis: ClR/env target cells, compound 1.0 nM added at beginning of 5 hour assay, 51Cr release
# Hela T4/env cells = assay: CTL-mediated killing (51Cr release) of Hela T4/env cells expressing SIV env; assay type: cell-based; settings: for Effect on CTL-mediated cell killing / lysis (in words): Hela T4/env cells; for Percent Specific Lysis: Hela T4/env target cells, compound 1.0 nM added at beginning of 5 hour assay, 51Cr release
# GAPDH = GAPDH (Homo sapiens, UniProt P04406); assay type: biochemical; settings: gel filtration of GAPDH incubated with DMD
# GAPDH, sequence (P04406 whole entry, species assumed): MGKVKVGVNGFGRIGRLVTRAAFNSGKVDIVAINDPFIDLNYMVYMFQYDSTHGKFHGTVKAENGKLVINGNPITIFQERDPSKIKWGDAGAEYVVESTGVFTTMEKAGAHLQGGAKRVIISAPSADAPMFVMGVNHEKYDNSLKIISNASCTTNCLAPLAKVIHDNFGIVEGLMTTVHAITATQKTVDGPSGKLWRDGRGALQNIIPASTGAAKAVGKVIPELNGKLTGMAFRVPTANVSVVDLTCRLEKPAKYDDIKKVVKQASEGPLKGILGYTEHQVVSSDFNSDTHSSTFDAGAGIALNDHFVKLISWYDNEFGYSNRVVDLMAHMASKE
SMILES,Stability depending on pH [1],Percent Specific Lysis (huBLCL/env cells) [%],Effect on CTL-mediated cell killing / lysis (in words) (rh BLCL/env cells),Percent Specific Lysis (rh BLCL/env cells) [%],Effect on CTL-mediated cell killing / lysis (in words) (ClR/env cells),Percent Specific Lysis (ClR/env cells) [%],Effect on CTL-mediated cell killing / lysis (in words) (Hela T4/env cells),Percent Specific Lysis (Hela T4/env cells) [%],Effect on CTL-mediated cell killing / lysis (in words) (huBLCL/env cells; huBLCL/env cells),Effect on association of GAPDH monomers (tetrameric vs dimeric form) (GAPDH)
"C#CCN(C)C(C)Cc1ccccc1 (stereo not drawn) [deprenyl, N,α-dimethyl-N-2-propynylphenethylamine]",more stable at a pH in the range of about 3-5 than at a pH of about 7,–,–,–,–,–,–,–,–,–
"CC(=O)N[C@@H](CS)C(=O)O [NAC, N-acetyl cysteine]",–,13.41,effective in reducing lysis,6.32,effective in reducing lysis,29.12,effective in reducing lysis,30.74,–,–
"C#CCNC(C)Cc1ccccc1 (single isomer, unassigned; (-)) [Desm., (−)-desmethyldeprenyl]",–,−1.85,reduced cell killing in all four cell lines,4.34,reduced cell killing in all four cell lines,6.98,reduced cell killing in all four cell lines,30.65,reduced cell killing in all four cell lines,inducing the conversion of GAPDH from the tetrameric form to the dimeric form
